Results taken from patent US20040014729A1, “Use of estramustine phosphate in the treatment of bone metastasis” (priority 2003, published 2004).
“Also recorded” adds a separate entry of the source.

Tests used:
[1] = Effect of estramustine phosphate and clodronate on their mutual bioavailability (serum AUC0-24h, Cmax, serum estradiol) in patients
Experimental: Twelve male patients aged 62-80 were divided into two groups of six patients.
The first group of six patients were given 3200 mg daily of clodronate only for four days. On the fifth day the AUC0-24 h for the drug was calculated from serum concentrations of repeated blood samples. On the sixth day, 560 mg estramustine phosphate was add per oral to the clodronate treatment for the following four days. On day ten, the AUC0-24 h for both drugs was calculated.
The second group of six patients were give orally 560 mg daily of estramustine phosphate only for four days. On the fifth day the AUC0-24 h for the drug was calculated from serum concentrations of repeated blood samples. On the sixth day, 3200 mg clodronate was added to the estramustine phosphate treatment for the following four days. On day ten, the AUC0-24 h for both drugs was calculated.
The clodronate was provided as 400 mg capsules, and the estramustine phosphate used was estracyt in 140 mg capsules.
The method used in the analysis of the serum estramustine phosphate concentrations measures […] and is insensitive to any metabolites. The estradiol-related metabolites (estramustine and estradiol) were not analyized in connection with the bioanalysis. […] Unfortunately, estradiol was not measured after administration of estramustine phosphate alone.

mouse calvaria = experiment: Bone resorption assay, organ culture with 45Ca-prelabeled mouse calvaria (PTH-stimulated 45Ca release); assay type: cell-based; conditions: for bone resorption in vitro (in words): compound present during culture
Experimental: This example used the organ culture technique with mouse calvaria.
The organ culture technique was used with ^45Ca-prelabeled mouse calvaria. The method has been described by Lerner (1987) and Ljunggren et al. (1991). Newborn mice were injected subcutaneously with ^45CaCl (1.5 μCi/animal). After four days their calvaria were dissected, split into quarters and preincubated in phenol red free CMRL 1066 medium supplemented with 0.1% bovine serum albumin and 50 μg/ml gentamicin for 24 hours at 37° C. in a humidified atmosphere of 5% CO2 in air in the presence of indomethacin (1 μmol/l) and 10 nmol/l bovine parathyroid hormone (PTH). After washing the bone pieces, the medium was changed and cultures incubated for three more days in the same medium but without indomethacin in the presence or absence of estramustine phosphate or clodronate. Resorption was measured by assaying the ^45Ca liberated into the medium using a standard technique for liquid scintillation counting. Total ^45Ca was determined after hydrolysing the calvaria in 6 mol/l HCI overnight. Bone resorption was studied in various concentrations of estramustine phosphate and the effect of estramusine phosphate present only during the preincubation stage was checked in order to study its cytotoxcity.
Results are expressed as mean ±SEM, n=5 or 10. Inhibition percentage was calculated as follows [formula]

[2] = present only during preincubation, then washed away, concentration not given

| Structure (SMILES) | AUC0-24h and Cmax, alone versus concomitantly with the other drug (in words) ([1]; human, in vivo, po) | bioavailability when the other drug is added (in words) ([1]; human, in vivo, po) | AUC0-24h Clodronate ([1]; male, human, in vivo, 3200 mg) [ng·h/mL] | resorption, compound present only during preincubation (in words) (mouse calvaria; [2]) | AUC0-24h and Cmax, alone versus concomitantly with the other drug (in words) ([1]; patients, oral) | bioavailability when the other drug is added (in words) ([1]; patients, oral) | resorption, compound present only during preincubation (in words) (mouse calvaria; 10 μmol/l) | resorption, compound present only during preincubation (in words) (mouse calvaria; 100 μmol/l) | observation in culture medium (mouse calvaria; Experiment 1, 1000 μmol/l) | bone resorption in vitro (in words) (mouse calvaria) | bone resorption in vitro (in words) (mouse calvaria; listed as estramustine phosphate sodium) |
| --- | --- | --- | --- | --- | --- | --- | --- | --- | --- | --- | --- |
| O=P(O)(O)C(Cl)(Cl)P(=O)(O)O [Clodronate, Disodium clodronate] | did not differ significantly | no effect | 19300 | also inhibits resorption | – | – | – | – | – | – | – |
| C[C@]12CC[C@@H]3c4ccc(OC(=O)N(CCCl)CCCl)cc4CC[C@H]3[C@@H]1CC[C@@H]2OP(=O)([O-])[O-].[Na+].[Na+] [Estramustine phosphate, Estramustine phosphate sodium] | – | – | – | PTH could not stimulate | differed statistically | almost doubled | slightly increased | strongly inhibited | (precipitate) | inhibited bone resorption in this in vitro model concentration-dependently and about as effectively as clodronate | dose-dependently inhibited; also recorded: inhibits bone resorption in vitro |
